# In ChEMBL document CHEMBL1201862, “PubChem BioAssay data set” (2004):
# Calls of active or inactive are those of the source.
# Experiments:
# Vero [1] = test: Vero cell viability after compound exposure – synthesized analogs, set II, cytotoxicity control for West Nile virus antiviral project, SAR follow-up (AID 2402); type: functional; conditions: Chlorocebus sabaeus
# [2] = target: T1, High affinity choline transporter 1 (Homo sapiens, UniProt Q9GZV3); test: human choline transporter blockers, potency – cell-based, 5-point CRC, membrane potential dye, dose response (AID 504840); type: functional
# T1 sequence (Q9GZV3 whole entry): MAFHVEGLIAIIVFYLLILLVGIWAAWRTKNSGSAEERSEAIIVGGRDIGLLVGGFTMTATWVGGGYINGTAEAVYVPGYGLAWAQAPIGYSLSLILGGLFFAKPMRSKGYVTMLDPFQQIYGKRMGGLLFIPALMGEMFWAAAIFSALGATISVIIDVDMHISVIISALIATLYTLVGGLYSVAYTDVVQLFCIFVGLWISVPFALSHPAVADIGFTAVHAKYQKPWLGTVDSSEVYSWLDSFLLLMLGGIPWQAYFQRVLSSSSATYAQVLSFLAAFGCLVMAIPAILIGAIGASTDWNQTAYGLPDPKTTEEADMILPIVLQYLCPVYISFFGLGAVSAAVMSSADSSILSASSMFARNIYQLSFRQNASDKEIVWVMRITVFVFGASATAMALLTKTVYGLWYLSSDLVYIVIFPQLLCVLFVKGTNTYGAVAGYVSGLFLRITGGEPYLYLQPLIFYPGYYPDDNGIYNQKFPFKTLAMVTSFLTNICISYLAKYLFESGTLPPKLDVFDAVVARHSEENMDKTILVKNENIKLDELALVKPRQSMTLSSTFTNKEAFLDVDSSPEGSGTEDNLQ
# [3] = target: Aryl hydrocarbon receptor (Homo sapiens, UniProt P35869); test: Luminescence-based cell-based high throughput dose response assay for activators of the Aryl Hydrocarbon Receptor (AHR). [Related pubchem assays: 2796 (Primary screen (AHR activators in singlicate)), 2845 (Confirmation screen (AHR activators in triplicate)), 434939 (Counterscreen (PXR activators in triplicate)), 2804 (Summary (AHR activators))]; type: ADME
# Aryl hydrocarbon receptor, sequence (P35869 whole entry): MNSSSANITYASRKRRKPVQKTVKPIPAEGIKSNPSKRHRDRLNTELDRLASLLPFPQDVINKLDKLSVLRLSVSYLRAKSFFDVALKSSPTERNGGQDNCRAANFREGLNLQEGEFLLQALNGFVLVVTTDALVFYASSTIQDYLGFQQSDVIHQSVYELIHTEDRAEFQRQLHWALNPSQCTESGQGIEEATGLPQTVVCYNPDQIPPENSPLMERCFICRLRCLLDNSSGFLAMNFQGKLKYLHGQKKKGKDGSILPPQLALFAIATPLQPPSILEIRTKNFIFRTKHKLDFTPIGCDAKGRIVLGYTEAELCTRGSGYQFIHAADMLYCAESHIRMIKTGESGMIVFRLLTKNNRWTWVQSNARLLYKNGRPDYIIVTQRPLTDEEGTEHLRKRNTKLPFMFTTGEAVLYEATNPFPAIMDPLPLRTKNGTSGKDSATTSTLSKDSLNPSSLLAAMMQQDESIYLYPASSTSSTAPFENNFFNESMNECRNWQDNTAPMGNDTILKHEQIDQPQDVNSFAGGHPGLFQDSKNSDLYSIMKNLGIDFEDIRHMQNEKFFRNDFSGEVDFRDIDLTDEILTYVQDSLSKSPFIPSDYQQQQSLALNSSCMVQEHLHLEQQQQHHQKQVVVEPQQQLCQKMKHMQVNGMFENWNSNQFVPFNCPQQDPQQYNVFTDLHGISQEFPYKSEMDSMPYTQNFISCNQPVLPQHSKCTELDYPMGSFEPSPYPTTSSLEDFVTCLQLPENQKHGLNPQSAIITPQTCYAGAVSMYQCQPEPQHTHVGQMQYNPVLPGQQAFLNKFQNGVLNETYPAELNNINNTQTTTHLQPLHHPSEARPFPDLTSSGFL
# Cytochrome P450 2C19 = Cytochrome P450 2C19 (Homo sapiens, UniProt P33261); test: qHTS Assay for Inhibitors and Substrates of Cytochrome P450 2C19. [Related pubchem assays: 410 ]; type: ADME; conditions: read-out: Potency
# Cytochrome P450 2C19, sequence (P33261 whole entry): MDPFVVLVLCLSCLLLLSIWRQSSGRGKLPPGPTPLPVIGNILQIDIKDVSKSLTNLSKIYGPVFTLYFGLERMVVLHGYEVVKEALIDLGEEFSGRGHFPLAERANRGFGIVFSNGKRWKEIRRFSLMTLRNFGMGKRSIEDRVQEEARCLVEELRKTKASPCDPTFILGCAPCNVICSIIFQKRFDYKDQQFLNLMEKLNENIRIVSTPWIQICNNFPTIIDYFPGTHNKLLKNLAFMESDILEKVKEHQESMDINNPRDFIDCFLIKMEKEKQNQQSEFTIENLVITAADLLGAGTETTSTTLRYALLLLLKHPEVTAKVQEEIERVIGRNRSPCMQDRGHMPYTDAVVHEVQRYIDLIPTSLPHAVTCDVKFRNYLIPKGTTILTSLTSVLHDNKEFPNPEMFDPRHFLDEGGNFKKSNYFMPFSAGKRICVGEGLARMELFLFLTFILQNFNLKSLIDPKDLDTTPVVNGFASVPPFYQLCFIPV
# Cytochrome P450 3A4 = Cytochrome P450 3A4 (Homo sapiens, UniProt P08684); conditions: Potency;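 further: confirmatory qHTS run detecting inhibitors and substrates of CYP3A4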
# Cytochrome P450 3A4, sequence (P08684 whole entry): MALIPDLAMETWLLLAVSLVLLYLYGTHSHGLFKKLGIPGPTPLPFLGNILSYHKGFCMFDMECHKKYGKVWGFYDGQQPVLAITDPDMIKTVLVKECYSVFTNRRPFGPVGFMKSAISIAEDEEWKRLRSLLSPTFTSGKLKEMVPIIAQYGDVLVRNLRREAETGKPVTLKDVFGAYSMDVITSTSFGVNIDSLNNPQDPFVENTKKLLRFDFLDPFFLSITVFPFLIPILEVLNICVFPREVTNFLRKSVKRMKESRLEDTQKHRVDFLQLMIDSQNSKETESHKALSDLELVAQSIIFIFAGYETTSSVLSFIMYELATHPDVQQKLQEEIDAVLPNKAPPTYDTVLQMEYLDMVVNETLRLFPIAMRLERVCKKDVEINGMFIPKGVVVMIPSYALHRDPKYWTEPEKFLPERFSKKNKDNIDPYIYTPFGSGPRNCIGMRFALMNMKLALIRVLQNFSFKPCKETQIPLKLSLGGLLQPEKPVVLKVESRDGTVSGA
# [4] = target: 5-hydroxytryptamine receptor 1A (Homo sapiens, UniProt P08908); type: functional
# 5-hydroxytryptamine receptor 1A, sequence (P08908 whole entry): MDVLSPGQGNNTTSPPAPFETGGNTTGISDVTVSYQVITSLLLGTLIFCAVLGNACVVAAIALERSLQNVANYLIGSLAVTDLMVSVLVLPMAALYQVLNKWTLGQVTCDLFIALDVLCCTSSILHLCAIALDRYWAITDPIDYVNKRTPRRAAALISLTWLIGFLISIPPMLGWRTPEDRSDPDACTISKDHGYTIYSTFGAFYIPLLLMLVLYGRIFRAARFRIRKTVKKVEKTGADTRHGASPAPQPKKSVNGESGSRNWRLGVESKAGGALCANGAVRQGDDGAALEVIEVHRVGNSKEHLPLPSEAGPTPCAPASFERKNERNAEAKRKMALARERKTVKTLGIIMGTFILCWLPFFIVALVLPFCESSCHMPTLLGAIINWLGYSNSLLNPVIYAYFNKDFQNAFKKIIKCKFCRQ
# [5] = target: Potassium voltage-gated channel subfamily KQT member 2 (Rattus norvegicus, UniProt O88943, W236L); test: potentiation of rat KCNQ2 current – cell-based, automated electrophysiology, mechanism study for KCNQ2 potentiator project, dose response (AID 2603); type: functional
# Potassium voltage-gated channel subfamily KQT member 2, sequence (O88943 whole entry W236L): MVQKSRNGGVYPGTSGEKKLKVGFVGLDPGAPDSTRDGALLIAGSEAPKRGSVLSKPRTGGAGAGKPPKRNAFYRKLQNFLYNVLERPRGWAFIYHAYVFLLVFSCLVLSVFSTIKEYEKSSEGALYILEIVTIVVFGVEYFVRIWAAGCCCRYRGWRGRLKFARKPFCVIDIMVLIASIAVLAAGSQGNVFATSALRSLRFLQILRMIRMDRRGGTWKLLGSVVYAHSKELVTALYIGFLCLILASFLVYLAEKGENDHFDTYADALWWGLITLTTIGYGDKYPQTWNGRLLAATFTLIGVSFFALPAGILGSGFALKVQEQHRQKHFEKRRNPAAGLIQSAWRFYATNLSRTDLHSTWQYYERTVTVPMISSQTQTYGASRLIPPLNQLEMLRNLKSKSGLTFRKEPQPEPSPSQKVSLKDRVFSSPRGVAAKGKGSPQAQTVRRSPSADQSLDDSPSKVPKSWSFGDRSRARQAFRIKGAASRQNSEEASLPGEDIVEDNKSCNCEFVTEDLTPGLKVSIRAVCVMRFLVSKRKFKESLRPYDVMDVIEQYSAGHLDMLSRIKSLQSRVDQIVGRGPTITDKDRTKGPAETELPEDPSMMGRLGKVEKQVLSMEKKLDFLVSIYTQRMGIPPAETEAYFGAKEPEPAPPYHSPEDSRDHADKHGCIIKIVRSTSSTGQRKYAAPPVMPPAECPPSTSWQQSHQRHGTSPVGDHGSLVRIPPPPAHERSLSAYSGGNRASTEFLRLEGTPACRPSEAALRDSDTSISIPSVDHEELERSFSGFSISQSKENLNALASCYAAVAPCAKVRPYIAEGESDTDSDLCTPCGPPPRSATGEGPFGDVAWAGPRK
# [6] = reduction of Shn3 3'UTR-driven luciferase in osteoblasts – cell-based, Clone20 osteoblasts, firefly luciferase, cherry-picked, dose response (AID 624132); type: functional;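 further: firefly luciferase luminescence from reporter carrying the Shn3 3'UTR in osteoblasts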
# Vero [7] = test: viability of Vero cells under compound – cytotoxicity control for flavivirus capping enzyme inhibitors (AID 588742); type: functional; conditions: Chlorocebus sabaeus
# [8] = loss of viability in HepG2 cells – cell-based, CellTiter-Glo, cherry-picked, cytotoxicity control for Shn3 inhibitor project, dose response (AID 624134); type: functional
# [9] = target: T2, Ubiquitin-conjugating enzyme E2 N (Homo sapiens, UniProt P61088); type: functional
# T2 sequence (P61088 whole entry): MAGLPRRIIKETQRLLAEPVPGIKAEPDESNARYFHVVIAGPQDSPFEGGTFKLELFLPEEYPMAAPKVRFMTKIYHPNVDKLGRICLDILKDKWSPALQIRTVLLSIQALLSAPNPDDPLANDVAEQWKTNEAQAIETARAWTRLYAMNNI
# Protein RecA = target: T3, Protein RecA (Mycobacterium tuberculosis, UniProt P9WHJ3); test: Fluorescence Cell-Free Homogeneous Dose Retest to Identify Inhibitors of RecA-Intein Splicing Activity. [Related pubchem assays (depositor defined):AID2097, AID2223, AID489010, AID492950]; type: functional
# T3 sequence (P9WHJ3 whole entry): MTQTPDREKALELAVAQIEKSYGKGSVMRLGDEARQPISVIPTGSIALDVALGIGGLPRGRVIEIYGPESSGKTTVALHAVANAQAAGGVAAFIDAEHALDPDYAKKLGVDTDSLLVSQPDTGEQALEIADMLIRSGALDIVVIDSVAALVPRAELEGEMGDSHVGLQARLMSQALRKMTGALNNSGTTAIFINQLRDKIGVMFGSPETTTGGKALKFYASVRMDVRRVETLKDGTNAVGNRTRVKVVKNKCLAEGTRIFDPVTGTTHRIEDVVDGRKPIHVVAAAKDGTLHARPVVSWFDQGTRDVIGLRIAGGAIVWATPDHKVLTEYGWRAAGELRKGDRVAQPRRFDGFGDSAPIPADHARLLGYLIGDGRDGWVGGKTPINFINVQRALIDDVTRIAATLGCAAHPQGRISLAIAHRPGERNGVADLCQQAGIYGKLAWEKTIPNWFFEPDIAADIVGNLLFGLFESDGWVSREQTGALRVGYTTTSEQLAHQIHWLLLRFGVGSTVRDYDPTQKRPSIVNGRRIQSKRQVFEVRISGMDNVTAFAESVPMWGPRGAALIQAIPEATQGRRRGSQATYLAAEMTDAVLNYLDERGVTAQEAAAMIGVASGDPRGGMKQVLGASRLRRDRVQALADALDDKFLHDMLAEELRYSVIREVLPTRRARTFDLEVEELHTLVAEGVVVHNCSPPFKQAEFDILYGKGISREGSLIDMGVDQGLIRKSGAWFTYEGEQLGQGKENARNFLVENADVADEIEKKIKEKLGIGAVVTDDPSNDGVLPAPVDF
# [10] = target: T1, High affinity choline transporter 1; test: human choline transporter blockers, potency – cell-based, 10-point CRC, membrane potential dye, dose response (AID 588401); type: functional;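 further: membrane potential dye fluorescence of choline-evoked depolarization via CHT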
# [11] = target: ATP-binding cassette sub-family B member 6 (Homo sapiens, UniProt Q9NP58); test: ABCB6 transporter inhibitors, porphyrin accumulation, dose response, flow cytometry, K562-ABCB6 cells, cherry pick 02 (AID 624487); type: functional; conditions: read-out: EC50_MICROM
# ATP-binding cassette sub-family B member 6, sequence (Q9NP58 whole entry, the tested form may be a part): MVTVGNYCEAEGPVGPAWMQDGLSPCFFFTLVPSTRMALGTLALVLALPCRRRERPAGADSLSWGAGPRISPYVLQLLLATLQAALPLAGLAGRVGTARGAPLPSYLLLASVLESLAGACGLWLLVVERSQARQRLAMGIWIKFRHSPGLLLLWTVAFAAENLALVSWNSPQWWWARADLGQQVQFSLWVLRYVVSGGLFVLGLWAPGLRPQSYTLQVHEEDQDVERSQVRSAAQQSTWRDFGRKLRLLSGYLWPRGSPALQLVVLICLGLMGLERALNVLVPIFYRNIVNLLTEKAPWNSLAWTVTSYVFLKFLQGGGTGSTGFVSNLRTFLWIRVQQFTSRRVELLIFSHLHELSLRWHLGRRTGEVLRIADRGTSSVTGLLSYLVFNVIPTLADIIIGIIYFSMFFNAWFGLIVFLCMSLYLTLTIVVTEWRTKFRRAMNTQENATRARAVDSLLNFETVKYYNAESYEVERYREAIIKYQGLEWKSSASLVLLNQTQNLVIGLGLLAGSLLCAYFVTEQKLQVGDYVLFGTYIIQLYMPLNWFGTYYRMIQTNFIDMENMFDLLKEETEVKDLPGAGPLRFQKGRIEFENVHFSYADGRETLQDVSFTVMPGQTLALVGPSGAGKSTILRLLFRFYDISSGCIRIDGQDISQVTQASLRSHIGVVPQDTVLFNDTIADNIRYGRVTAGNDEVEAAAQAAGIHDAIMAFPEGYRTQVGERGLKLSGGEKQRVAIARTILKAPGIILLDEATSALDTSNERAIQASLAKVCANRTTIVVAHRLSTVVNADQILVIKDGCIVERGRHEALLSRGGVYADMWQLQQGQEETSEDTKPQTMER
# [12] = target: T4, Hepatocyte nuclear factor 4-alpha (Homo sapiens, UniProt P41235); type: functional, cell-based;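 further: biochemical luminescence-based dose-response counterscreen measuring inhibition of HNF4 dimerization, run alongside a screen for blockers of ABHD5–perilipin-5 interaction; split luciferase complementation of HNF4 fusion proteins in cell lysate measuring dimerization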
# T4 sequence (P41235 whole entry): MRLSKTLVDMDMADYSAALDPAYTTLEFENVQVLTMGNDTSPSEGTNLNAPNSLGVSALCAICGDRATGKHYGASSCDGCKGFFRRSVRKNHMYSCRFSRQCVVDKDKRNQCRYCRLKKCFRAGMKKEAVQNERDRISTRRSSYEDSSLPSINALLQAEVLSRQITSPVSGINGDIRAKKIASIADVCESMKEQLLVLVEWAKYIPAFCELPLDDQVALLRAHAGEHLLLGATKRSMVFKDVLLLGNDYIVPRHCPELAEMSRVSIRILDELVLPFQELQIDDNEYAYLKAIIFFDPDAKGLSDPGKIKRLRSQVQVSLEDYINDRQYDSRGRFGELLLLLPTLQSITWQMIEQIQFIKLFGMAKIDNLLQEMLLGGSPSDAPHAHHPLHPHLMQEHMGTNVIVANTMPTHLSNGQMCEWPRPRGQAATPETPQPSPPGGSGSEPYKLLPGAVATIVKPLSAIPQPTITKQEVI
# Bcl-2-related protein A1 = target: T5, Bcl-2-related protein A1 (Mus musculus, UniProt Q07440); type: functional;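 further: confirmatory dose–response counterscreen on Bfl-1, used to check hits from a UBC13 polyubiquitin inhibitor campaign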
# T5 sequence (Q07440 whole entry): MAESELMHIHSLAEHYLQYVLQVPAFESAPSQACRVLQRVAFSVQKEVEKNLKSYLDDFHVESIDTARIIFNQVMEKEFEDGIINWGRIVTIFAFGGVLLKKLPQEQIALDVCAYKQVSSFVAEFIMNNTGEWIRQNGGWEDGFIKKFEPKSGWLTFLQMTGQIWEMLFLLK
# [13] = target: T2, Ubiquitin-conjugating enzyme E2 N; type: functional; remark: listed apart in the source
# Genome polyprotein = Genome polyprotein (dengue virus type 2, UniProt P29990); test: flavivirus cap methylation enzyme inhibition – biochemical, confirmation dose response, primary screen (AID 588689); type: functional
# Genome polyprotein, sequence (P29990 2492-3391 limits assumed): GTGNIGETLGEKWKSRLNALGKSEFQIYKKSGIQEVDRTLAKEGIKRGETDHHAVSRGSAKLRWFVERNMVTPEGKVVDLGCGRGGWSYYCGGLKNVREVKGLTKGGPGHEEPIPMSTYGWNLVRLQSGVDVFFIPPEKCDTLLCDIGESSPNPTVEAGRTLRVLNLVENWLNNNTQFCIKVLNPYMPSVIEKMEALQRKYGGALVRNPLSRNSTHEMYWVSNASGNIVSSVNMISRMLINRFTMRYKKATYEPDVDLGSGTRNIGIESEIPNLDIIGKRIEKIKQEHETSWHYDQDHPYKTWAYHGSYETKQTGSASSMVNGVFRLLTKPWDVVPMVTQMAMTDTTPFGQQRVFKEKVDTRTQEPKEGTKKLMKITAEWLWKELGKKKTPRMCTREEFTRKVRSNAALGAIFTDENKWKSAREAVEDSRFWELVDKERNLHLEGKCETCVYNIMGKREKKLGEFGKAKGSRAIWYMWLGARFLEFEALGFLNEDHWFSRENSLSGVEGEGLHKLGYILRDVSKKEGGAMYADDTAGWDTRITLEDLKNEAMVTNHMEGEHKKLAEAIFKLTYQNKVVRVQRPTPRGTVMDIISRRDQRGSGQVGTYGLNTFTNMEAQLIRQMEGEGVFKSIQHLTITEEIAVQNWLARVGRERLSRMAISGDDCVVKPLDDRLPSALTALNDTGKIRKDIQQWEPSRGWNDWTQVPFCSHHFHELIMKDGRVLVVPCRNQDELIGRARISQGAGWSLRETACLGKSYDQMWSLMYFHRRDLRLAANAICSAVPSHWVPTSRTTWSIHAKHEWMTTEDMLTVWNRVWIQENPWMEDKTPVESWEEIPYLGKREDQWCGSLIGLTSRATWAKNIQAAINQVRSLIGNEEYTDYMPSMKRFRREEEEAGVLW
# [14] = non-specific 3'UTR reporter inhibition in Clone20-Shn3RL – cell-based, Renilla luciferase, cherry-picked, counter-screen for Shn3 inhibitor project, dose response (AID 624133); type: functional
# [15] = Trypanosoma cruzi growth suppression in host cells – NIH3T3 host cells, beta-gal luminescence, confirmation (AID 2044); type: functional, cell-based;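 further: intracellular parasites grown in NIH/3T3 mouse fibroblasts as host cells; luminescent beta-galactosidase reporter signal from transgenic T. cruzi replicating inside host cells; inhibitors lower the luminescence signal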
# [16] = NIH3T3 cell viability loss – ATP luminescence, mouse fibroblasts, counter-screen, dose response (AID 2010); type: functional, cell-based;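 further: cells exposed to compound for about 90 hours before reading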
smiles,measurement,setting,value
O=C(CSc1nc2ccc(F)cc2c(=O)n1-c1ccccc1)Nc1ccc2c(c1)CCC2,CC50,Vero [1],> 200 µM (active)
Cc1ccc[n+](CC(=O)c2ccc(Br)cc2)c1C,IC50,[2],13.8 µM (active)
same,EC50,[3],6.77 µM (active)
O=c1cc(-c2ccccc2O)oc2c1ccc1ccccc12,AC50,Cytochrome P450 2C19,0.251 µM (inconclusive)
same,AC50,Cytochrome P450 3A4,15.8 µM (inconclusive)
CCN1CC=C(c2c[nH]c3ccccc23)CC1,EC50,[4],> 50 µM (not active)
CCCc1nnc(NC(=O)c2nc(S(=O)(=O)Cc3cccc(C)c3)ncc2Cl)s1,EC50,[5],2.89 µM (active)
same,AC50,[6],2.55 µM (active)
same,CC50,Vero [7],> 40 µM (active)
same,AC50,[8],> 70 µM (inactive)
same,IC50,[9],> 20 µM (inactive)
same,EC50,Protein RecA,> 380 µM (inactive)
same,IC50,[2],3.9 µM (active)
same,IC50,[10],3.16 µM (active)
same,EC50,[11],60.6 µM (active)
same,IC50,[12],5.71 µM (active)
same,IC50,Bcl-2-related protein A1,> 20 µM (inactive)
same,IC50,[13],12.3 µM (active)
same,IC50,Genome polyprotein,> 100 µM (active)
same,AC50,[14],10 µM (active)
O=C(CCC1CCCN(Cc2ccc3c(c2)OCCO3)C1)NCc1ccc(F)c(F)c1 (stereo not drawn),EC50,[15],< 0.1 µM (active)
same,EC50,[16],> 60 µM (not active)
same,EC50,cells,0.033 µM (active)
